In US8420692B1, “Heterocyclic and carbonate derivatives of NDGA and their use as new anti-HIV and anti-cancer agents” (The Johns Hopkins University, priority 2006, dated 2013):
pIC50: −log10 of the molar value. Where two headings read alike, the source gives them in different places.

Key:
[1] = tested on: HIV Tat-regulated transactivation; assay: cells; format: cell-based; details: for Inhibition (%) of HIV Tat-regulated Transactivation in COS Cells: average of three experiments; for pIC50: read-out: IC50, HIV Tat-regulated transactivation
Protocol: The COS cells were co-transfected with a Tat-producing plasmid and a plasmid containing the HIV LTR linked to the SeAP reporter gene. Transfected cells were treated with various concentrations of 5b P4N. After 48 h, aliquots of media were removed and analysis of SeAP activity was performed. The percent inhibition of SeAP activity by 5b P4N ? was calculated in comparison with the percent of growth inhibition of untransfected COS cells by P4N ?
The medium used for dilution of compounds and maintenance of cultures during the assay was the same as described above. Cultures were maintained in disposable tissue culture labware at 37° C. in a humidified atmosphere of CO2 (5.0%) in air. Compounds were dissolved as stock solutions in water or dimethyl sulfoxide (DMSO) at the concentration of 10 mM. The stock solutions were diluted with H2O (5a-d) or DMSO (6a,b and 7) and dilute by medium to the desired concentration by a 30-s vortex just before addition into the cell culture. Triplicate cell samples were seeded at density of ˜1.5×10^4 cell per well in Libro 24-well flat-bottom culture dishes (17-mm diameter), which were incubated for 24 h until they reached 50% confluence. The cells were cotransfected by the calcium phosphate procedure with DNA from plasmids pBC12/CMV/t2 (coding for Tat function, 0.20 μg/well) and pBC12/HIV/SeAP (0.40 μg/well). Cells and DNAs were kept in contact for 6.0 h; then the medium was aspirated and replaced by 500 μL of medium containing the test compound. The compound-treated cells were then incubated for additional 48 h. At the end of incubation, an aliquot of cell culture medium was removed and SeAP activities were analyzed by spectrametric method.^20 The sample of culture medium were heated at 65° C. for 5.0 min to inactivate endogenous phosphatases selectively (SeAP is thermal stable). The buffer solution of 2×SeAP (100 μL, 1.0 M diethanolamine, pH 9.8; 0.50 mM MgCl2; 10 mM L-homoarginine) was added to the culture medium sample (100 μL) in a 96-well flat-bottom culture dish (Corning). Then, the substrate solution ([…], 120 mM, p-nitrophenyl phosphate dissolved in 1×SeAP buffer) was dispensed into each well containing the reaction mixture. The absorbance at wavelength 405 nm specific for the hydrolysis product was read at 2.5 min intervals at 37° C. over the course of 60 min on an EL340i microplate reader (Bio-tek Instruments) with 5 s automatic shaking before each reading.
Two plasmid constructs^19 were used to test the effect of synthesized NDGA derivatives on Tat-regulated HIV transactivation as described previously.^12,13,19 The plasmid constructs included a cytomegalovirus (CMV) promoter driven tat gene and SP1 regulated HIV LTR promoter driven reporter gene (i.e., SeAP). A standard SeAP assay in the absence of drug was initially run to find out efficiency of transfection.

[2] = Stability in aqueous solution (time dependent UV spectra); format: physicochemical
Protocol: FIG. 1: Stability of Two NDGA Derivatives G4N and P4N(HCl salts) in Aqueous Solution. Time Dependent Changes in UV spectra showing (a) G4N is unstable and (b) meso-2,3-dimethyl-1,4-bis(3,4-[2-piperidino)ethoxyphenyl])butane (P4N) (compound 5b in Scheme 1) (day 1, 2, 8, 13, 28) is stable in Milli-Q water after 28 days at 20° C.
The new NDGA derivatives (Scheme 1) were found stable in aqueous solution; >99% of these compounds remained intact after 28 days (see FIG. 1(b)). In a sharp contrast, >96% G4N (4) decomposed in aqueous solution within 24 h (see FIG. 1(a)).

[3] = tested on: HIV Tat-regulated transactivation; details: values from references 9 and 12; read-out: IC50, Tat-regulated SeAP production (reference compounds); cited from earlier work
[4] = COS cells, SeAP, mean of triplicate determinations
[5] = Human immunodeficiency virus 1, COS, read-out: Inhibition (%) of HIV Tat-regulated Transactivation in COS Cells

| SMILES | Inhibition (%) of HIV Tat-regulated Transactivation in COS Cells ([1]; 0.10 μM) [%] | Inhibition (%) of HIV Tat-regulated Transactivation in COS Cells ([1]; 0.25 μM) [%] | Inhibition (%) of HIV Tat-regulated Transactivation in COS Cells ([1]; 0.50 μM) [%] | Inhibition (%) of HIV Tat-regulated Transactivation in COS Cells ([1]; 1.0 μM) [%] | Inhibition (%) of HIV Tat-regulated Transactivation in COS Cells ([1]; 2.5 μM) [%] | Inhibition (%) of HIV Tat-regulated Transactivation in COS Cells ([1]; 5.0 μM) | Inhibition (%) of HIV Tat-regulated Transactivation in COS Cells ([1]; 10 μM) | Inhibition (%) of HIV Tat-regulated Transactivation in COS Cells ([1]; 20 μM) [%] | Inhibition (%) of HIV Tat-regulated Transactivation in COS Cells ([1]; 40 μM) [%] | Inhibition (%) of HIV Tat-regulated Transactivation in COS Cells ([1]; 80 μM) [%] | Inhibition (%) of HIV Tat-regulated Transactivation in COS Cells ([1]; 100 μM) [%] | pIC50 [1, 4] | pIC50 [3] | further results |
| --- | --- | --- | --- | --- | --- | --- | --- | --- | --- | --- | --- | --- | --- | --- |
| C[C@H](Cc1ccc(OCCN2CCCC2)c(OCCN2CCCC2)c1)[C@@H](C)Cc1ccc(OCCN2CCCC2)c(OCCN2CCCC2)c1.Cl.Cl.Cl.Cl [Compound 5a, meso-2,3-Dimethyl-1,4-bis(3,4-[2-(pyrrolidino)ethoxyphenyl])butane Tetrakishydrochloride Salt] | 18.1 | 15.4 | 27.2 | 19.6 | 31.0 | 14.1% | 26.3% | 59.1 | 94.8 | 97.1 | 100 | 4.76 | – | – |
| C[C@H](Cc1ccc(OCCN2CCOCC2)c(OCCN2CCOCC2)c1)[C@@H](C)Cc1ccc(OCCN2CCOCC2)c(OCCN2CCOCC2)c1.Cl.Cl.Cl.Cl [Compound 5c, meso-2,3-Dimethyl-1,4-bis(3,4-[2-(morpholino)ethoxyphenyl])butane Tetrakishydrochloride Salt] | 5.0 | 16.5 | 9.9 | 8.1 | 4.6 | 13.3% | 25.4% | 58.9 | 86.0 | 96.8 | 100 | 4.76 | – | – |
| C[C@H](Cc1ccc(OCCCN2CCOCC2)c(OCCCN2CCOCC2)c1)[C@@H](C)Cc1ccc(OCCCN2CCOCC2)c(OCCCN2CCOCC2)c1.Cl.Cl.Cl.Cl [Compound 5d, meso-2,3-Dimethyl-1,4-bis(3,4-[3-(morpholino)propoxyphenyl])butane Tetrakishydrochloride Salt] | 15.0 | 15.9 | 10.6 | 9.5 | 52.7 | 89.5% | 96.0% | 99.9 | 99.8 | 100 | 89.5 | 5.62 | – | – |
| C[C@H](Cc1ccc(OC(=O)N2CCCCC2)c(OC(=O)N2CCCCC2)c1)[C@@H](C)Cc1ccc(OC(=O)N2CCCCC2)c(OC(=O)N2CCCCC2)c1 [Compound 6a, meso-2,3-Dimethyl-1,4-bis[3,4-(phenylpiperidine-1-carboxylate)]butane] | 0 | 3.5 | 5.8 | 11.7 | 46.2 | 78.6% | 84.0% | 86.1 | 83.8 | 90.1 | 89.8 | 5.55 | – | – |
| COC(=O)Oc1ccc(C[C@@H](C)[C@@H](C)Cc2ccc(OC(=O)OC)c(OC(=O)OC)c2)cc1OC(=O)OC [Compound 6b, meso-2,3-Dimethyl-1,4-bis[3,4-(methylphenyl carbonate)]butane] | 9.8 | 12.3 | 16.0 | 13.1 | 15.1 | 38,0% | 51,6% | 58.4 | 70.8 | 93.4 | 88.9 | 5.03 | – | – |
| C[C@H](Cc1ccc2oc(=O)oc2c1)[C@@H](C)Cc1ccc2oc(=O)oc2c1 [Compound 7, meso-2,3-Dimethyl-1,4-bis(benzo[d][1,3]-dioxol-2-one)butane] | – | – | – | – | – | – | – | – | – | – | – | – | – | pIC50 ([1]; Human immunodeficiency virus 1, COS): 5.07; inhibition at 0.1 µM [1, 5]: 7.5%; inhibition at 0.25 µM [1, 5]: 18.1%; inhibition at 0.5 µM [1, 5]: 4.2%; inhibition at 1 µM [1, 5]: 5.9%; inhibition at 2.5 µM [1, 5]: 23.7%; inhibition at 5 µM [1, 5]: 47.1%; inhibition at 10 µM [1, 5]: 51.2%; inhibition at 20 µM [1, 5]: 68.8%; inhibition at 40 µM [1, 5]: 85.7%; inhibition at 80 µM [1, 5]: 96.3%; inhibition at 100 µM [1, 5]: 91.6%; melting point: 172.6 to 173.4 °C |
| C[C@H](Cc1ccc(OC(=O)CN(C)C)c(OC(=O)CN(C)C)c1)[C@@H](C)Cc1ccc(OC(=O)CN(C)C)c(OC(=O)CN(C)C)c1 [Compound G4N, (tetra-O-dimethylglycyl)nordihydroguaiaretic acid] | – | – | – | – | – | – | – | – | – | – | – | – | – | Stability in Milli-Q water (UV spectra) ([2]; HCl salts, 28 days at 20° C., FIG. 1): unstable; Compound decomposed in aqueous solution ([2]; within 24 h): > 96% |
| COc1ccc(C[C@@H](C)[C@@H](C)Cc2ccc(OC)c(OC)c2)cc1OC [Compound M4N, (tetra-O-methyl)nordihydroguaiaretic acid] | – | – | – | – | – | – | – | – | – | – | – | – | 4.95 | – |
| COc1cc(C[C@H](C)[C@H](C)Cc2ccc(O)c(O)c2)ccc1O [Mal.4] | – | – | – | – | – | – | – | – | – | – | – | – | 4.60 | – |
| C[C@H](Cc1ccc(O)c(O)c1)[C@@H](C)Cc1ccc(O)c(O)c1 [NDGA, Nordihydroguaiaretic acid] | – | – | – | – | – | – | – | – | – | – | – | – | 4.70 | – |
